Tested on: Gammarus pulex
Experiment: Targeted metabolite profiling (LC-HRMS) of G. pulex after exposure at NOAEL and LOAEL
Assay type: in vivo
Protocol: Approximately 100 specimens were introduced in a tank containing 1 L of AFW (control), 1 L of AFW spiked with C1 and 1 L of AFW with C2. At three different times (2, 6 and 24 h), 4 replicates of live G. pulex (a pool of 6–7 animals for each replicate) were collected, frozen on dry ice and then stored at − 80 °C before metabolite profiling was performed.
Quantification of pharmaceutical concentrations in G. pulex at the 24 h exposure interval was performed. Separate exposures were set up in triplicate in beakers containing 200 mL of exposure solution (AFW spiked with the respective C1 pharmaceutical dose) and 20 organisms. At 24 h, animals were immediately rinsed with ultra-pure water and then frozen at − 20 °C for 24 h. […] Prior to extraction, frozen G. pulex samples were lyophilised at − 50 °C under vacuum for 48 h and milled in an agate mortar to a fine powder. For each analysis, 20 mg of a lyophilised composite sample were transferred to 2 mL polypropylene tubes (Eppendorf®, Hamburg, Germany), for solid-liquid extraction (SLE). […] Then, samples were shaken for 25 min on a vibration plate (IKA® KS 260 basic) and centrifuged at 14,000 rpm for 25 min at 0 °C. Finally, the supernatant was transferred to a chromatographic vial by using a […] syringe filter (Whatman, GE Healthcare Life Sciences, Buckinghamshire, UK). All samples were stored at − 80 °C until LC-HRMS analysis.
Briefly, 50 mg of lyophilised G. pulex were extracted in 5 mL of acetonitrile and pre-concentrated on Oasis HLB SPE cartridges (6 mL, 200 mg sorbent). The extract was eluted, dried-down and reconstituted in starting LC mobile phase. […] Organic acids, nucleosides, nucleotides, sugars and AAs were measured using LC–HRMS. An Exactive™ mass spectrometer equipped with heated electrospray ionization (H-ESI) source was used (Thermo Fisher Scientific, Bremen, Germany). The system was equipped with a HTC PAL autosampler and a Surveyor MS Plus pump. A TSK Gel-Amide 80 column (2 × 250 mm, 5 μm) for analyte separation was purchased from Sigma Aldrich. Mobile phases were binary mixtures of acetonitrile (A) and 5 mM ammonium acetate (pH 5) in HPLC-grade water (B). […] The flow rate was set at 150 μL min^− 1 and the injection volume was 5 μL. […] Full scan acquisition over a mass range of 80–800 Da was performed at 70,000 full width at half maximum (FWHM) and spray voltage at 3.00 kV, capillary voltage at 30 V, skimmer voltage at 28 V and tube lens voltage at 130 V were used. A sheath gas flow rate of 45 arbitrary units (au), an auxiliary gas flow rate of 10 au and a capillary temperature at 300 °C were selected.
Here, pharmaceutical residue quantification in exposed G. pulex was performed by a 3-point matrix-matched calibration curve. […] The algal amino acid mixture-^13C,^15N (see Table 1) was used as internal standard (IS) for extraction and analytical control. L-ornithine hydrochloride, inosine, thymidine, taurine, 1.7-dimethylxanthine and (−)-riboflavin were quantified using either ^13C,^15N-proline or ^13C,^15N-tyrosine as the internal standard. The remaining 15 compounds were quantified using external calibration and the target compound itself was used as external standard. […] The method detection limit (MDL) was calculated following the same procedure, using spiked lyophilised G. pulex samples at a concentration of 1 μg g^− 1. Intra-assay variation was assessed using five consecutive injections of 5 ng μL^− 1 standard solution, and inter-assay variation was determined by measuring the same standard solution on four different days. […] Recovery studies were performed in triplicate, using lyophilised G. pulex samples spiked at 1 μg g^− 1 with the metabolites mixture and the algal amino acid mixture-^13C, ^15N.

## Oc1cc(Cl)ccc1Oc1ccc(Cl)cc1Cl [Triclosan]
6h, C2= 0.3 mg/L
  (-)-Riboflavin concentration in G. pulex: 2.6 ± 0.3 µg/g
  ADP concentration in G. pulex: 28.2 ± 0.3 µg/g
  Cytidine concentration in G. pulex: 19 ± 7 µg/g
  Hypoxanthine concentration in G. pulex: 74 ± 18 µg/g
  Inosine concentration in G. pulex: 23098 ± 627 µg/g
  L-2-amino-n-butyric concentration in G. pulex: 19.8 ± 2 µg/g
  L-(-)-Proline concentration in G. pulex: 246 ± 4 µg/g
  L-Alanine concentration in G. pulex: 784 ± 31 µg/g
  L-Citrulline concentration in G. pulex: 12.3 ± 1 µg/g
  L-Isoleucine concentration in G. pulex: 1561 ± 147 µg/g
  L-Leucine concentration in G. pulex: 353 ± 4 µg/g
  L-Methionine concentration in G. pulex: 4.6 ± 0.8 µg/g
  L-Phenylalanine concentration in G. pulex: 233 ± 5 µg/g
  L-Serine concentration in G. pulex: 168 ± 2 µg/g
  L-Threonine concentration in G. pulex: 486 ± 8 µg/g
  L-Tryptophan concentration in G. pulex: 134 ± 10 µg/g
  L-Tyrosine concentration in G. pulex: 234 ± 2 µg/g
  L-Valine concentration in G. pulex: 299 ± 18 µg/g
  L-aspartic acid concentration in G. pulex: 36.1 ± 6 µg/g
  NADH concentration in G. pulex: 8.1 ± 0.8 µg/g
  Taurine concentration in G. pulex: 8484 ± 60 µg/g
  Thymidine concentration in G. pulex: 1163 ± 130 µg/g
  Trehalose concentration in G. pulex: 251 ± 4 µg/g
  Uridine concentration in G. pulex: 533 ± 28 µg/g
24h, C1= 0.1 mg/L
  (-)-Riboflavin concentration in G. pulex: 2.4 ± 2 µg/g
  ADP concentration in G. pulex: 18.7 ± 1 µg/g
  Cytidine concentration in G. pulex: 19 ± 3 µg/g
  Hypoxanthine concentration in G. pulex: 95 ± 27 µg/g
  Inosine concentration in G. pulex: 18957 ± 5084 µg/g
  L-2-amino-n-butyric concentration in G. pulex: 16.8 ± 5 µg/g
  L-(-)-Proline concentration in G. pulex: 293 ± 13 µg/g
  L-Alanine concentration in G. pulex: 810 ± 110 µg/g
  L-Citrulline concentration in G. pulex: 8.3 ± 0.5 µg/g
  L-Isoleucine concentration in G. pulex: 1743 ± 224 µg/g
  L-Leucine concentration in G. pulex: 376 ± 13 µg/g
  L-Methionine concentration in G. pulex: 7.0 ± 0.3 µg/g
  L-Phenylalanine concentration in G. pulex: 260 ± 6 µg/g
  L-Serine concentration in G. pulex: 120 ± 12 µg/g
  L-Threonine concentration in G. pulex: 600 ± 20 µg/g
  L-Tryptophan concentration in G. pulex: 72 ± 8 µg/g
  L-Tyrosine concentration in G. pulex: 307 ± 4 µg/g
  L-Valine concentration in G. pulex: 398 ± 17 µg/g
  L-aspartic acid concentration in G. pulex: 82.5 ± 26 µg/g
  NADH concentration in G. pulex: 7.7 ± 0.1 µg/g
  Taurine concentration in G. pulex: 12433 ± 2122 µg/g
  Thymidine concentration in G. pulex: 1718 ± 19 µg/g
  Trehalose concentration in G. pulex: 251 ± 22 µg/g
  Uridine concentration in G. pulex: 644 ± 77 µg/g
24h, C2= 0.3 mg/L
  (-)-Riboflavin concentration in G. pulex: 2.6 ± 0.8 µg/g
  ADP concentration in G. pulex: 29.3 ± 0.8 µg/g
  Cytidine concentration in G. pulex: 16 ± 3 µg/g
  Hypoxanthine concentration in G. pulex: 53 ± 10 µg/g
  Inosine concentration in G. pulex: 36017 ± 80 µg/g
  L-2-amino-n-butyric concentration in G. pulex: 21.5 ± 2 µg/g
  L-(-)-Proline concentration in G. pulex: 207 ± 3 µg/g
  L-Alanine concentration in G. pulex: 673 ± 17 µg/g
  L-Citrulline concentration in G. pulex: 13.8 ± 2 µg/g
  L-Isoleucine concentration in G. pulex: 1164 ± 39 µg/g
  L-Leucine concentration in G. pulex: 299 ± 0.7 µg/g
  L-Methionine concentration in G. pulex: 3.1 ± 0.9 µg/g
  L-Phenylalanine concentration in G. pulex: 134 ± 0.5 µg/g
  L-Serine concentration in G. pulex: 167 ± 15 µg/g
  L-Threonine concentration in G. pulex: 440 ± 11 µg/g
  L-Tryptophan concentration in G. pulex: 115 ± 8 µg/g
  L-Tyrosine concentration in G. pulex: 224 ± 1 µg/g
  L-Valine concentration in G. pulex: 250 ± 3 µg/g
  L-aspartic acid concentration in G. pulex: 33.9 ± 11 µg/g
  NADH concentration in G. pulex: 9.9 ± 0.3 µg/g
  Taurine concentration in G. pulex: 8468 ± 142 µg/g
  Thymidine concentration in G. pulex: 396 ± 12 µg/g
  Trehalose concentration in G. pulex: 378 ± 17 µg/g
  Uridine concentration in G. pulex: 574 ± 15 µg/g

Source: article PMC4912218, “Targeted metabolomics of Gammarus pulex following controlled exposures to selected pharmaceuticals in water” (The Science of the Total Environment, 2016)
